US4027024A (priority 1972, dated 1977)

Legend:
rats [1] = assay: hot plate test on rats, analgesic effect (Tables 1 and 2); format: in vivo
Description: Examination of PROBON'S potentiating effect upon
azidomorphine and azidocodeine, carried out on rats, by
hot plate test, compared with Algopyrine. The compounds
were administered s.c. (subcutaneously).
Examination of the potentiating effect of a few
homopyrimidazole derivatives upon axidomorphine or
azidocodeine, carried out on rats, by Hot plate test, the
compounds were administered s.c.

rats [2] = details: rat, in vivo; for analgesic effect of the component per se (in words): sc
rats [3] = assay: algolytic test, analgesia evaluated by pain score scale (Table A); format: in vivo; details: for Pain units: pretr. time 1 hour, alone
[4] = modified hot plate test, duration of effect; format: in vivo; details: azidocodeine alone
rats [5] = details: rat, in vivo

CCOC(=O)c1cnc2n(c1=O)C(C)CCC2 (stereo not shown) [MZ-108, 3-carbethoxy-4-oxo-6-methyl-6,7,8,9-tetrahydro-homopyrimidazole]
Analgesic effect, Hot plate test (rats [1]; 200 mg/kg s.c., alone): 18% | Analgesic effect, algolytic test (rats [2]): 31%

COc1ccc2c3c1O[C@H]1[C@H](N=[N+]=[N-])CC[C@H]4[C@@H](C2)N(C)CC[C@@]341 [Azidocodeine]
Pain units (rats [3]; Azidocodeine 30 mg/kg p.o.): 87 Pain units | Pain units (rats [3]; Azidocodeine 45 mg/kg p.o.): 38 Pain units | Pain units (rats [3]; Azidocodeine 60 mg/kg p.o.): 30 Pain units | ED50 in the algolytic test (rats [3]; azidocodeine alone, from diagram plotted from Table A): 32 mg/kg | duration of the effect [4]: 2 to 2.5 h | Analgesic effect, Hot plate test (rats [1]; AK 0.250 mg/kg s.c., alone): 16%

CN1CC[C@]23c4c5ccc(O)c4O[C@H]2[C@H](N=[N+]=[N-])CC[C@H]3[C@H]1C5 [Azidomorphine]
Analgesic effect, Hot plate test (rats [1]; AM 0.015 mg/kg s.c., alone): 22% | analgesic effect of the component per se (in words) (rats [2]): ineffective

CCOC(=O)C1=CN(C)C2CCCC(C)N2C1=O (stereo not shown) [MZ-168, 1,6-dimethyl-3-carbethoxy-4-oxo-1,6,7,8,9,10-hexahydro-homopyrimidazole]
Analgesic effect, Hot plate test (rats [1]; 50 mg/kg s.c., alone): 23%

O=C(CCCN1CCC(O)(c2ccc(Cl)cc2)CC1)c1ccc(F)cc1 [haloperidol, reference compound]
Prolongation of narcotic period (rats [5]): 255%

CC1CCCc2n1c(=O)c(C(=O)[O-])c[n+]2C (stereo not shown) [MZ-211, 1,6-dimethyl-4-oxo-6,7,8,9-tetrahydro-homopyrimidazole-3-carboxylic acid]
Analgesic effect, Hot plate test (rats [1]; 50 mg/kg s.c., alone): 38% | Analgesic effect, algolytic test (rats [2]): 15%

CCOC(=O)c1c[n+](C)c2n(c1=O)C(C)CCC2 (stereo not shown) [MZ-144, 1,6-dimethyl-3-carbethoxy-4-oxo-6,7,8,9-tetrahydro-homopyrimidazolium-methosulphate]
Prolongation of narcotic period (rats [5]): 571% | Pain units (rats [3]; MZ-144 300 mg/kg p.o.): 75 Pain units | Analgesic effect, Hot plate test (rats [1]; 50 mg/kg s.c., alone): 38% | Analgesic effect, algolytic test (rats [2]): 59% | analgesic effect of the component per se (in words) (rats [2]): ineffective

CCOC(=O)C1CN(C)C2CCCC(C)N2C1=O (stereo not shown) [MZ-170, 1,6-dimethyl-3-carbethoxy-4-oxo-1,2,3,6,7,8,9,10-octahydro-homopyrimidazole]
Analgesic effect, Hot plate test (rats [1]; 300 mg/kg s.c., alone): 31%

Cc1c(N(C)CS(=O)(=O)O)c(=O)n(-c2ccccc2)n1C [Algopyrin, 2,3-dimethyl-4-methylamino-1-phenyl-5-pyrazolon-N-methane-sulfonic acid, reference compound]
Analgesic effect, Hot plate test (rats [1]; 150 mg/kg s.c., alone): 33% | Analgesic effect, Hot plate test (rats [1]; 200 mg/kg s.c., alone): 49% | Analgesic effect, Hot plate test (rats [1]; AP 150 mg/kg s.c., AM --, AK dose left blank): 29% | analgesic potency relative to Probon (in words) (rats [1]; Hot plate test, rats, s.c.): equipotent with Probon | effect on analgesic effect of azidomorphine or azidocodeine (in words) (rats [1]; Hot plate test, rats, s.c.): does not increase the analgesic effect
